Holding throughout (test): SILAC RP-ABPP
Type in all cases: cell-based
What all share (conditions): SILAC H/L

Assay [1] deals with T1, CTSA Lysosomal protective protein (P10619) (Homo sapiens, UniProt P10619).
T1 construct: In Situ Labelling of Cells with Hydrazine Probes for MS Experiments; endogenous in cells; host or cells: HEK293T and/or MDA-MB-231
T1 sequence (P10619 29-480): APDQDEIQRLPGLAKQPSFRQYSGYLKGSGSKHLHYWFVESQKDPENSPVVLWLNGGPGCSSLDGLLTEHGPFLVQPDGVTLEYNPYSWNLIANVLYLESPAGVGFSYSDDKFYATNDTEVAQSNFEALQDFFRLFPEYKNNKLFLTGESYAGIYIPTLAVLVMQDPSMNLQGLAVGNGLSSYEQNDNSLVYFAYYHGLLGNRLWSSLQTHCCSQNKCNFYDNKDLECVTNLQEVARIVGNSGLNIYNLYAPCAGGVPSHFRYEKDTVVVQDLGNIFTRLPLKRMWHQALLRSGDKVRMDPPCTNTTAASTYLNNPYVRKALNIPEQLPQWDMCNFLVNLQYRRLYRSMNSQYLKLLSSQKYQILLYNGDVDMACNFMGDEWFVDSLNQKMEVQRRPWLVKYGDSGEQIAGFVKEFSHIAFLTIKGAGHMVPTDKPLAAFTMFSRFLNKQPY
The procedure:
(§1) For MS-based experiments, labelling was performed in a similar manner as described above in Example 2, maintaining the same concentrations of probes. Modifications to this protocol included using isotopically ‘light’ and ‘heavy’ SILAC cells that were also grown to near complete confluence prior to treatment. Isotopically light cells were treated with the non-clickable hydrazine probe (at the same concentration as the probe in ‘enrichment’ experiments) or the probe in the presence of 10-fold excess non-clickable hydrazine probe as a competitor (in ‘competition’ experiments). Isotopically heavy cells were treated with the probe for both types of experiments. These treatments were performed in non-SILAC media. Following treatments, cells were washed with cold PBS to remove the probe-containing media, harvested by scraping, collected by centrifugation (1,400 g, 3 min, 4° C.), washed again by resuspension in cold PBS and frozen as pellets at −80° C. until use.
(§2) The fractionated equimolar mixture of heavy and light soluble proteomes (1-1.5 mg) was diluted to 1 mL in PBS. Click reactions were scaled accordingly (except for biotin-azide) to maintain final concentrations of 0.1 mM TBTA, 1 mM CuSO4, 100 μM biotin-azide (10 mM in DMSO) and 1 mM TCEP. The mixture was vortexed and placed on a rotator at ambient temperature for 1 hour. Sequential addition of and mixture with pre-chilled methanol (MeOH, 2 mL), chloroform (CHCl3, 0.5 mL) and PBS (1 mL) on ice quenched the reaction. The precipitated proteome was centrifuged (5,000 g, 10 min, 4° C.) to fractionate the protein interphase from the organic and aqueous solvent layers. The protein pellet was washed with cold 1:1 MeOH:CHCl3 (3×1 mL), mildly sonicated in cold 4:1 MeOH:CHCl3 (2.5 mL) and pelleted once more by centrifugation (5,000 g, 10 min, 4° C.) to ensure click reagents were efficiently removed.
(§3) Heavy and light parent ion chromatograms associated with successfully identified peptides were extracted and compared using CIMAGE software as previously described^69. At least one ion of a co-eluting heavy-light pair must be accurately identified from a fragmentation event that occurred within the retention time window (±10 min) of parent ion elution. To ensure that the correct pair of peaks is quantified, chromatograms are extracted within a 10 ppm error tolerance of the predicted m/z, the signal-to-noise ratio must be >2.5 and the ‘co-elution correlation score’ and ‘envelope correlation score’ must have R^2 values ≥0.8. In addition, peptides detected as ‘singletons,’ where only the heavy ion of a peptide pair was identified, but for which passed all other filtering parameters, are given a default assigned ratio of ‘20,’ which is defined as any measured ratio that is ≥20.
(§4) To further eliminate false positives and any stochastic variability in the data, protein ratios were then determined by the median peptide ratio derived from three or more unique quantified peptides. Protein ratios that complied with these criteria from a single experiment were then averaged with ratios acquired from ≥3 replicates to provide final values for each type of experiment in both cell lines with both probes. […] Most importantly, there are no robustly measured ratios for proteins identified as probe 1 targets that had measured ratios of ˜1 with probe 2. Probe targets in HEK293T and MDA-MB-231 cells represent data combined from ≥3 independent biological replicates with each cell type performed with several independent batches of synthesized probes over a period of almost two years.
(§5) Analogous experiments were also performed with the aryl hydrazine probe 2 (1 mM, 0.5 hour), which furnished a larger list of high-reactivity proteins (33 in total; Table 3) that contained several of the targets of probe 1 (compared in Table 4), as well as additional proteins that may reflect an expanded chemical reactivity for probe 2.

Assay [2] concerns the target T2, CTSC Dipeptidyl peptidase 1 (P53634) (Homo sapiens, UniProt P53634).
T2 construct: In Situ Labelling of Cells with Hydrazine Probes for MS Experiments; endogenous in cells; host or cells: HEK293T and/or MDA-MB-231
How it is done: as §1, §2, §3, §4, §5

For assay [3], the target named is T3, DENR Densityregulated protein (O43583) (Homo sapiens, UniProt O43583).
T3 construct: In Situ Labelling of Cells with Hydrazine Probes for MS Experiments; endogenous in cells; host or cells: HEK293T and/or MDA-MB-231
T3 sequence (O43583 1-198): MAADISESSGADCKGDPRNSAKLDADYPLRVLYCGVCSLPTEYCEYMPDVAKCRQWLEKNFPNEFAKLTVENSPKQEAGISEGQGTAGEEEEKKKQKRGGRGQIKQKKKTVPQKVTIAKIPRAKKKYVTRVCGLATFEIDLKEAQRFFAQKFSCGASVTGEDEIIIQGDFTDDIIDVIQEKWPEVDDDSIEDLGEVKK
How it is done:
as §1, §2, §3, §4, §5

Assay [4] deals with T4, FTH1 Ferritin heavy chain (P02794) (Homo sapiens, UniProt P02794).
T4 construct: In Situ Labelling of Cells with Hydrazine Probes for MS Experiments; endogenous in cells; host or cells: HEK293T and/or MDA-MB-231
How it is done: as §1, §2, §3, §4, §5

Assay [5] deals with T5, FTO Alphaketoglutaratedependent dioxygenase (Q9C0B1) (Homo sapiens, UniProt Q9C0B1).
T5 construct: In Situ Labelling of Cells with Hydrazine Probes for MS Experiments; endogenous in cells; host or cells: HEK293T and/or MDA-MB-231
How it is done: as §1, §2, §3, §4, §5

Assay [6] deals with T6, PPT1 Palmitoylprotein thioesterase 1 (P50897) (Homo sapiens, UniProt P50897).
T6 construct: In Situ Labelling of Cells with Hydrazine Probes for MS Experiments; endogenous in cells; host or cells: HEK293T and/or MDA-MB-231
T6 sequence (P50897 28-306): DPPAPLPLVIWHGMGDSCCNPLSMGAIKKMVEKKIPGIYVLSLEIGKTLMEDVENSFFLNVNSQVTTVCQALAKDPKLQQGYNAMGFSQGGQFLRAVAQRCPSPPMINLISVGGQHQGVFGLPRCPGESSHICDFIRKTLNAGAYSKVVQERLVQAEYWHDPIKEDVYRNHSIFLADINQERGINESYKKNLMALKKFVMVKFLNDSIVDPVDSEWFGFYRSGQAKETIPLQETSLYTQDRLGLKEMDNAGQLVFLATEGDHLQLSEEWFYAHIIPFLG
How it is done: as §1, §2, §3, §4, §5

[7] abbreviates: probe 1 3 mM 0.5 h vs probe 3, cell line not given.
Setting [8] is: probe 1 vs probe 1+10x probe 3, cell line not given.
Setting [9] is: probe 2 1 mM 0.5 h vs probe 4, MDA-MB-231.
[10] abbreviates: probe 2 vs probe 2+10x probe 4, MDA-MB-231.

For `C#CCNN.Cl` [probe 1, prop-2-yn-1-ylhydrazine hydrochloride], the enrichment ratioavg in assay [1] (setting [7]) is 4; in assay [4] (setting [7]), 1. Further, the competition ratioavg was 4 in assay [1] (setting [8]); 3 in assay [2] (setting [8]); 1 in assay [3] (setting [8]); 1 in assay [4] (setting [8]); 1 in assay [5] (setting [8]); 5 in assay [6] (setting [8]).
Regarding `C#CCCNC(=O)c1ccc(NN)cc1.Cl` [probe 2, N-(but-3-yn-1-yl)-4-hydrazinylbenzamide hydrochloride], the enrichment ratioavg in assay [1] (setting [9]) is 9; in assay [2] (setting [9]), 20; in assay [3] (setting [9]), 20; in assay [4] (setting [9]) it was 20; in assay [5] (probe 2 1 mM 0.5 h vs probe 4, HEK293T) it was 13; in assay [6] (setting [9]), 20. The competition ratioavg turned out to be 4 in assay [1] (setting [10]); 9 in assay [2] (setting [10]); 5 in assay [3] (setting [10]); 5 in assay [4] (setting [10]); 5 in assay [5] (probe 2 vs probe 2+10x probe 4, HEK293T); 5 in assay [6] (setting [10]).

The values are drawn from US11226337B2, “Chemoproteomic profiling of protein electrophilic and oxidative post-translational modifications” (Zenagem, LLC, priority 2017, dated 2022).
